Structures are written as SMILES. Where “and” joins values, the source holds several entries; their conditions need not be identical. Identical values can stand only once.

One assay has as its target T1, human recombinant DAT (Homo sapiens, UniProt Q01959).
T1 construct: expressed in transfected cells; 'hDAT cells' for uptake
Kind of assay: [3H]-DA uptake inhibition in hDAT cells. Particulars: mean (95% CI), 3 to 9 experiments, read-out: Neurotransmitter Uptake Inhibition: pIC50 DAT (converted). Type of assay: cell-based. The source says: The in vitro pharmacology of TD-9855 (4-[2-(2, 4, 6-trifluorophenoxymethyl)phenyl]piperidine; Figure 1) at human recombinant and rat native monoamine transporters was characterized as described previously ([Tsuruda et al., 2010]; [Shen et al., 2013]). Radioligands were sourced commercially (Perkin Elmer Life Sciences or GE Healthcare Life Sciences). Briefly, membranes prepared from HEK293 (Human Embryonic Kidney 293) cells stably-transfected with human recombinant SERT (HEK293-hSERT), NET (HEK293-hNET), or DAT ([…]) were incubated for 1hr at 22°C in the absence, or presence, of TD-9855 and [^3H]-citalopram (1.0nM) for SERT, [^3H]-nisoxetine (2.0nM) for NET, and [^3H]-WIN35428 (3.0nM) for DAT in 50mM Tris-HCl, 120mM NaCl, 5mM KCl, 0.025% BSA, 100 μM ascorbic acid, pH 7.4. Rat cortical membrane preparations were incubated with [^3H]-citalopram (2.0nM) for SERT or [^3H]-nisoxetine (4.0nM) for NET for 1hr at 22°C. […] Binding and uptake assays were terminated by rapid filtration and radioactivity, determined by liquid scintillation spectroscopy.

A further assay addresses SERT (Homo sapiens, UniProt P31645). Put plainly: Human PET SERT occupancy with [11C]-DASB. The assay is classed as in vivo. The arrangement: from tissue; host or cells: brain of healthy male volunteers, in vivo PET. As for the experimental part:
This was a Phase 1, open-label, single-dose study in healthy male volunteers to evaluate NET and SERT occupancy in the human brain after oral administration of TD-9855 using PET.
The study was conducted at the Yale PET Center in accordance with the principles of the International Conference on Harmonisation’s Technical Requirements for Registration of Pharmaceuticals for Human Use Guideline for Good Clinical Practice. The protocol was approved by the Yale University Human Investigation Committee and the Yale–New Haven Hospital Radiation Safety Committee. SERT and NET occupancy were determined using the selective radiotracers [^11C]-DASB ([Meyer et al., 2004]; [Takano et al., 2006]; [Abanades et al., 2011]; [Nogami et al., 2013]) and [^11C]-MRB. Selection of the radiotracers and the dose of TD-9855 were flexible to minimize the number of PET scans.
Eligible subjects were enrolled and received either [^11C]-MRB and/or [^11C]-DASB. Each subject underwent up to 5 PET scans over a period of up to 8 days. Multiple dose levels of TD-9855 (up to 20mg) were explored. All randomized subjects received the NET tracer (single-tracer evaluation) and some subjects (n = 3) received both the NET and SERT tracers sequentially (dual-tracer evaluation) in the baseline and post-dose period. […] In the dual-tracer evaluation, subjects completed sequential [^11C]-DASB and [^11C]-MRB baseline scans with each tracer, sequential post-dose scans with each tracer at 7–10hr post-dose, and one follow-up scan with [^11C]-MRB on or between Days 3 and 7. […]
For both studies, binding potentials (BP ND) were estimated using a method based on a reference region input curve. […] The suitability of MRTM2 to estimate [^11C]-MRB BP ND values was evaluated in a previous study ([Hannestad et al., 2010]), in which it was shown that MRTM2 BP ND estimates are highly correlated with BP ND estimated with arterial blood sampling and the multilinear analysis 1 (y = 0.909 x + 0.078, r^2 = 0.821, where x represents the MA1 BP ND values and y represents the MRTM2 BP ND values). […]

Sequence of SERT (P31645 whole entry): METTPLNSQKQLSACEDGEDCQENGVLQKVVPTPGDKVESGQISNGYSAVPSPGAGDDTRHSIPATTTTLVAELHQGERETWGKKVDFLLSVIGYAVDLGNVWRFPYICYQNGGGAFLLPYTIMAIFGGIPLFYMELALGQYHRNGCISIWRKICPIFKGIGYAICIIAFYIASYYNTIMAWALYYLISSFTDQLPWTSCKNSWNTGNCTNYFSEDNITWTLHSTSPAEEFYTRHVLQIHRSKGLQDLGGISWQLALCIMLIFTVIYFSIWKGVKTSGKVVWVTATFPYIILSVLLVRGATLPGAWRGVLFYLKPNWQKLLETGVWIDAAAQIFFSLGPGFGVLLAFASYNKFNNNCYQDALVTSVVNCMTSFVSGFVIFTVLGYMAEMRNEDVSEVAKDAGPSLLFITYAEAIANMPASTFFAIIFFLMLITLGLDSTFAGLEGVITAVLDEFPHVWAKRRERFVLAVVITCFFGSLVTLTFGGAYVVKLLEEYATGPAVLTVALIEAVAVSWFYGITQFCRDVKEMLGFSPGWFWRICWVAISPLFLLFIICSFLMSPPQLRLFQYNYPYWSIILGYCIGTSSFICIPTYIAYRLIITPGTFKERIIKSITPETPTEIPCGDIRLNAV
T1 sequence (Q01959 whole entry): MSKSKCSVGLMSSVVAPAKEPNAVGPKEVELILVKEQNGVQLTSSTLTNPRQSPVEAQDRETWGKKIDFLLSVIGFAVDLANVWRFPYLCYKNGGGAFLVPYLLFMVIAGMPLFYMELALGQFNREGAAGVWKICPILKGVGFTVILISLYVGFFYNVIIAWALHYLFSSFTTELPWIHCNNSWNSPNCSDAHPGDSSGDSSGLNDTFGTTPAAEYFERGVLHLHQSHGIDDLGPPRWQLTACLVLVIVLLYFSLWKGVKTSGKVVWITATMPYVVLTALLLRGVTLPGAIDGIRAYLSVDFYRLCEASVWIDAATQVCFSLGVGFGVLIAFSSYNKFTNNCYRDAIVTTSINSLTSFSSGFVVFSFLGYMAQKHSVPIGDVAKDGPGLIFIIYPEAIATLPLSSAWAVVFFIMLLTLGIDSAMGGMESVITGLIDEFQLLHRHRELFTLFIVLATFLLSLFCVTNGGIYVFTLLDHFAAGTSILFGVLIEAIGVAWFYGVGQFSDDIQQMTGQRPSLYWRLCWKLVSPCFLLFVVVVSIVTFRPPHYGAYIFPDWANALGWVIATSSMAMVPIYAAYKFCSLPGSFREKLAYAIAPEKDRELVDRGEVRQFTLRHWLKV

As to `Fc1cc(F)c(OCc2ccccc2C2CCNCC2)c(F)c1` [TD-9855, 4-[2-(2,4,6-trifluorophenoxymethyl)phenyl]piperidine], on human recombinant DAT, the IC50 is 158 nM. Besides, on SERT (20mg single oral dose, Day 1, mean ± SD, n = 3, at plasma level 6.35ng/mL), the “average SERT occupancy” value is listed as 25 (±8) %. On SERT (20 mg single oral dose, individual subjects, rApp ± SE, listed as TH-9855), the “Apparent SERT Occupancy Day 1” value is 15.5±2.6% and 29.1±2.2% and 30.5±3.1%. Further, the “levels of SERT occupancy across subjects” value on SERT (single dose of 20mg, n = 3) is given as 15–30%.
